Experimental data reported in patent publication US11078204B2, “Heterocyclic derivatives as PI3K inhibitors” (Incyte Corporation, priority 2018, dated 2021).
Structures can show the parent of a compound that is named as a salt.

Experiments:
[1] = target: PI3Kγ (p110γ) Recombinant Human Protein (Homo sapiens (Human), UniProt P48736); test: PI3K-γ Scintillation Proximity Assay; type: biochemical; conditions: 20 μM PIP2, 2 μM ATP, 13 nM PI3Kγ, 120 min
Method in brief: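 Recombinant human p110γ (13 nM) phosphorylated 20 μM PIP2 with 2 μM ATP plus 0.5 μCi [γ-33P]ATP for 120 min at room temperature in 20 mM MOPS pH 6.7, 10 mM MgCl2, 5 mM DTT, 0.03% CHAPS, 2% DMSO. Product was captured on WGA SPA beads in EDTA quench and counted. IC50 was fitted from percent of solvent-control activity.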

[2] = target: PI3Kδ (p110δ/p85α) Recombinant Human Protein (Homo sapiens (Human), UniProt O00329); test: PI3Kδ Scintillation Proximity Assay; type: biochemical; conditions: 20 μM PIP2, 2 μM ATP, 3.4 nM PI3Kδ, 120 min
Method in brief: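 Recombinant p110δ/p85α (3.4 nM) with 20 μM PIP2, 2 μM ATP plus [γ-^33P]ATP, in 20 mM MOPS pH 6.7, 10 mM MgCl2, 5 mM DTT, 0.03% CHAPS, 2% DMSO; 120 min at room temperature. EDTA quench, WGA SPA beads, scintillation counting. IC50 from percent of solvent-control activity versus log concentration.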

[3] = tested on: Phosphorylated Ribosomal Protein S6 (RPS6) in THP-1 cells; test: THP-1 RPS6 ELISA Assay; type: cell-based; conditions: Homo sapiens, 2 hours compound, 10 nM MCP-1 for 15 minutes, Phospho-RPS6 ELISA, read-out: PI3Kγ_THP1_RPS6_ELISA IC50
Procedure: Example A. THP-1 RPS6 ELISA Assay To measure the Phosphorylated Ribosomal Protein S6 (RPS6) in cell lysates, THP-1 cells (Human Acute Monocytic Leukemia) are purchased from ATCC (Manassas, Va.) and maintained in RPMI with 10% FBS (Gibco/Life Technologies, Carlsbad, Calif.). For the assay, THP-1 cells are serum starved overnight in RPMI, then plated in RPMI (2×10^5 cells/well in 90 μL) into 96-well flat-bottom tissue culture treated plates (Corning, Corning, N.Y.), in the presence or absence of a concentration range of test compounds. Covered plates are incubated for 2 hours at 37° C., 5% CO2 then treated with or without 10 nM MCP-1 (MYBioSource, San Diego, Calif.) for 15 minutes at 37° C., 5% CO2. Plates are centrifuged at 1600 RPM and supernatants are removed. Cells are lysed in Lysis Buffer (Cell Signaling, Danvers, Mass.) with Protease Inhibitor (Calbiochem/EMD, Germany), PMSF (Sigma, St Louis Mo.), HALTS (Thermo Fisher, Rockford, Ill.) for 30 min on wet ice. Cell lysates are frozen at −80° C. before testing. The lysates are tested in the Human/Mouse/Rat Phospho-RPS6 ELISA (R&D Systems, Inc. Minn, Minn.). The plate is measured using a microplate reader (SpectraMax M5-Molecular Devices, LLC Sunnyvale, Calif.) set to 450 nm with a wavelength correction of 540. IC50 determination is performed by fitting the curve of inhibitor percent inhibition versus the log of the inhibitor concentration using the GraphPad Prism 5.0 software.

Sequence of PI3Kδ (p110δ/p85α) Recombinant Human Protein (O00329 whole entry): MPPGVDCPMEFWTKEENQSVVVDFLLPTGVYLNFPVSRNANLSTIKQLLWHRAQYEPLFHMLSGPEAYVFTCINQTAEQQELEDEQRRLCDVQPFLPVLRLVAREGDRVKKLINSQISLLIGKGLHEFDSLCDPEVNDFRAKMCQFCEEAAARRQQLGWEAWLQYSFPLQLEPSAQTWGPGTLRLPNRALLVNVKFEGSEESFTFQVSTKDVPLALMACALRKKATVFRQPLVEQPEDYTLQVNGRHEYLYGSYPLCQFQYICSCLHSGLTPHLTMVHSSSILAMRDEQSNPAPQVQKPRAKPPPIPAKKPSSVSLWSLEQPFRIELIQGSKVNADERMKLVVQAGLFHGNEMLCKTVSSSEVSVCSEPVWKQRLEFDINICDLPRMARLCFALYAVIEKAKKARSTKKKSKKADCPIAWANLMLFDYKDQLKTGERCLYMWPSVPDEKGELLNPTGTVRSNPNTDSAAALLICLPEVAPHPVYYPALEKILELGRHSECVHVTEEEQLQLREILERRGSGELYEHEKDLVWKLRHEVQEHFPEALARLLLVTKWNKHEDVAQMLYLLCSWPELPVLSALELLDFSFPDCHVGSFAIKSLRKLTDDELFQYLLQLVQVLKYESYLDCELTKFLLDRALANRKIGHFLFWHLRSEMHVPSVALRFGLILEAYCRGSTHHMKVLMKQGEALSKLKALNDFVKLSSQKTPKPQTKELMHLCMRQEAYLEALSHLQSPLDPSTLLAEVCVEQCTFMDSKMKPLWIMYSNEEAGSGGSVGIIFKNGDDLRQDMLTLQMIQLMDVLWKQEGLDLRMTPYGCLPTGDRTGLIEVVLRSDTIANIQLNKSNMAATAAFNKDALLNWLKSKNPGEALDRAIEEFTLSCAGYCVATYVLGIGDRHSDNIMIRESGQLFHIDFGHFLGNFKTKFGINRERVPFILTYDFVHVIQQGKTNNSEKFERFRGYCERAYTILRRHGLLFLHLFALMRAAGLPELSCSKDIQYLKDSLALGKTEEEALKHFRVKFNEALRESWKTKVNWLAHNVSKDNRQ
Sequence of PI3Kδ (p110δ/p85α) Recombinant Human Protein (P27986 whole entry partner): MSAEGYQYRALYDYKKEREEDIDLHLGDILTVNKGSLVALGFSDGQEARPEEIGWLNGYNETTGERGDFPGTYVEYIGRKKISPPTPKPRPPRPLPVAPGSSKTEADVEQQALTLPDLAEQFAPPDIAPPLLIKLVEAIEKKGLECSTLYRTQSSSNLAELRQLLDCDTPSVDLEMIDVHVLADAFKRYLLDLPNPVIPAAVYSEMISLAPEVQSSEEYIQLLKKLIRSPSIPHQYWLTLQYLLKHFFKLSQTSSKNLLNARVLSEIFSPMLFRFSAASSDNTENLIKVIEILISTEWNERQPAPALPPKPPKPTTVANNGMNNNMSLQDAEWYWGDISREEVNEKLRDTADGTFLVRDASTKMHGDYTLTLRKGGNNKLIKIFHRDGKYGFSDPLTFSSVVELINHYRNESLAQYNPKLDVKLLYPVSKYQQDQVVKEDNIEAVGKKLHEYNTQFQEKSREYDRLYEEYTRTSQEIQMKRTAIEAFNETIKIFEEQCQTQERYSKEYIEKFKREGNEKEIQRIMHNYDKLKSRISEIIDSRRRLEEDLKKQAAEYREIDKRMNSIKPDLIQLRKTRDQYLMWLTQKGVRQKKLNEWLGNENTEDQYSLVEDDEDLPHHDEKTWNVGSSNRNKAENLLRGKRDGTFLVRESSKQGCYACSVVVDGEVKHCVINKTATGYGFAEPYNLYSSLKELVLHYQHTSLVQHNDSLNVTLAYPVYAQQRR
Sequence of PI3Kγ (p110γ) Recombinant Human Protein (P48736 whole entry): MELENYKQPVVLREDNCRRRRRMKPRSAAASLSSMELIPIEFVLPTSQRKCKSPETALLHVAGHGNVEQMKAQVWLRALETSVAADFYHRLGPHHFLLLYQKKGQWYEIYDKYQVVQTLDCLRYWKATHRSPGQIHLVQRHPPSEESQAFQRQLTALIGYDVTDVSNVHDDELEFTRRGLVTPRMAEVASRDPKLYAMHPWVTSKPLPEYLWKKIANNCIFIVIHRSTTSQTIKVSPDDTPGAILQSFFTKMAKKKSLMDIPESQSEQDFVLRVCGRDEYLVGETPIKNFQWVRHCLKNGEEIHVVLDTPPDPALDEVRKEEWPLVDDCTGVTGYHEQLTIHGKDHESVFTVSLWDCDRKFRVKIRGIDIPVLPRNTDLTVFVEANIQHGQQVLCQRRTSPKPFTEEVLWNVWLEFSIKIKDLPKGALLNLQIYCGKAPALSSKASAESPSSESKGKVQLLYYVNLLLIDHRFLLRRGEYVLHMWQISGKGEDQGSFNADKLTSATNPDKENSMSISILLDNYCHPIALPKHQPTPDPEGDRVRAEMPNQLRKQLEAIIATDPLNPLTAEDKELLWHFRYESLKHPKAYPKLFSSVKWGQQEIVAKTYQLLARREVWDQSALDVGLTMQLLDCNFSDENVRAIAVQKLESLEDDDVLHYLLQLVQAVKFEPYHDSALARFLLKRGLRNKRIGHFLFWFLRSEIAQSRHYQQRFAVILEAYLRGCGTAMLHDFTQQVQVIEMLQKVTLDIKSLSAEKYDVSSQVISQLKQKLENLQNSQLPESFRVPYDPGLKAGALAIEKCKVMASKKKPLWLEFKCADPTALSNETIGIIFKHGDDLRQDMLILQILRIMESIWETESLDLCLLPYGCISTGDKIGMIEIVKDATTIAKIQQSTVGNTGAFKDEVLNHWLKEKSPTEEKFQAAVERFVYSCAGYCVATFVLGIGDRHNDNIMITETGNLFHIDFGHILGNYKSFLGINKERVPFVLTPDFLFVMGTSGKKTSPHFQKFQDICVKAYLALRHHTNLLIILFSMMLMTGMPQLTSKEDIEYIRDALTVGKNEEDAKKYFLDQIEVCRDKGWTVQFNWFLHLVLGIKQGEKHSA

C[C@@H](C1CC1)N1Cc2cc(-c3cnc4c(N)nc(C(F)(F)F)cn34)cc(Cl)c2C1=O [Example 1, (S)-5-(8-Amino-6-(trifluoromethyl)imidazo[1,2-a]pyrazin-3-yl)-7-chloro-2-(1-cyclopropylethyl)isoindolin-1-one]
IC50 [1]: ≤ 100 nM | IC50 [2]: < 2000 nM | IC50 [3]: ≥ 1000 nM

CC(C)N1Cc2cc(-c3cnc4c(N)ncnn34)ccc2C1=O [Example 14, 5-(4-Aminoimidazo[2,1-f][1,2,4]triazin-7-yl)-2-isopropylisoindolin-1-one trifluoroacetate salt]
IC50 [1]: ≤ 100 nM | IC50 [2]: ≥ 2000 nM | IC50 [3]: ≥ 1000 nM

C[C@@H](C1CC1)N1Cc2cc(-c3cnc4c(N)ncnn34)cc(S(C)(=O)=O)c2C1=O [Example 8, (S)-5-(4-Aminoimidazo[2,1-f][1,2,4]triazin-7-yl)-2-(1-cyclopropylethyl)-7-(methylsulfonyl)isoindolin-1-one]
IC50 [1]: ≤ 100 nM | IC50 [2]: ≤ 500 nM | IC50 [3]: < 1000 nM

C[C@@H](C1CC1)N1Cc2cc(-c3cnc4c(N)nc(C(=O)NC5CCOCC5)cn34)cc(S(C)(=O)=O)c2C1=O [Example 29, (S)-8-Amino-3-(2-(1-cyclopropylethyl)-7-(methylsulfonyl)-1-oxoisoindolin-5-yl)-N-(tetrahydro-2H-pyran-4-yl)imidazo[1,2-a]pyrazine-6-carboxamide, trifluoroacetate salt]
IC50 [1]: ≤ 100 nM | IC50 [2]: ≤ 500 nM | IC50 [3]: < 1000 nM

C[C@@H](C1CC1)N1Cc2cc(-c3cnc4c(N)nc(-c5cnn(C)c5)cn34)cc(S(C)(=O)=O)c2C1=O [Example 35, (S)-5-(8-Amino-6-(1-methyl-1H-pyrazol-4-yl)imidazo[1,2-a]pyrazin-3-yl)-2-(1-cyclopropylethyl)-7-(methylsulfonyl)isoindolin-1-one, trifluoroacetate salt]
IC50 [1]: ≤ 100 nM | IC50 [2]: ≤ 500 nM | IC50 [3]: ≤ 500 nM

C[C@@H](C1CC1)N1Cc2cc(-c3cnc4c(N)nc(C(F)(F)F)cn34)ccc2C1=O [Example 5, (S)-5-(8-Amino-6-(trifluoromethyl)imidazo[1,2-a]pyrazin-3-yl)-2-(1-cyclopropylethyl)isoindolin-1-one]
IC50 [1]: ≤ 100 nM | IC50 [2]: ≥ 2000 nM | IC50 [3]: ≥ 1000 nM
